Data taken from patent US20230295119A1, “SUBSTITUTED PYRIDINES FOR THE TREATMENT OF INFLAMMATORY DISEASES” (GOSSAMER BIO SERVICES, INC., priority 2020, published 2023).

How the values were obtained:
TYK2 JH2 domain = TYK2 JH2 domain (Homo sapiens (Human), UniProt P29597); test: TYK2 JH2 NanoBRET assay; type: binding; settings: Table 20, read-out: TYK2 IC50
Summary of the method: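 HEK293T cells transiently expressing NanoLuc-TYK2 JH2 fusion, incubated 2 h with compound and NanoBRET K10 tracer (0.5 µM final). Target engagement read as acceptor/donor BRET ratio after Nano-Glo substrate plus extracellular NanoLuc inhibitor.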

human JAK3 = human JAK3 (Homo sapiens (Human), UniProt P52333); test: JAK3 TR-FRET kinase assay; type: biochemical; settings: JAK3 0.0125 nM
human JAK3, sequence (P52333 whole entry): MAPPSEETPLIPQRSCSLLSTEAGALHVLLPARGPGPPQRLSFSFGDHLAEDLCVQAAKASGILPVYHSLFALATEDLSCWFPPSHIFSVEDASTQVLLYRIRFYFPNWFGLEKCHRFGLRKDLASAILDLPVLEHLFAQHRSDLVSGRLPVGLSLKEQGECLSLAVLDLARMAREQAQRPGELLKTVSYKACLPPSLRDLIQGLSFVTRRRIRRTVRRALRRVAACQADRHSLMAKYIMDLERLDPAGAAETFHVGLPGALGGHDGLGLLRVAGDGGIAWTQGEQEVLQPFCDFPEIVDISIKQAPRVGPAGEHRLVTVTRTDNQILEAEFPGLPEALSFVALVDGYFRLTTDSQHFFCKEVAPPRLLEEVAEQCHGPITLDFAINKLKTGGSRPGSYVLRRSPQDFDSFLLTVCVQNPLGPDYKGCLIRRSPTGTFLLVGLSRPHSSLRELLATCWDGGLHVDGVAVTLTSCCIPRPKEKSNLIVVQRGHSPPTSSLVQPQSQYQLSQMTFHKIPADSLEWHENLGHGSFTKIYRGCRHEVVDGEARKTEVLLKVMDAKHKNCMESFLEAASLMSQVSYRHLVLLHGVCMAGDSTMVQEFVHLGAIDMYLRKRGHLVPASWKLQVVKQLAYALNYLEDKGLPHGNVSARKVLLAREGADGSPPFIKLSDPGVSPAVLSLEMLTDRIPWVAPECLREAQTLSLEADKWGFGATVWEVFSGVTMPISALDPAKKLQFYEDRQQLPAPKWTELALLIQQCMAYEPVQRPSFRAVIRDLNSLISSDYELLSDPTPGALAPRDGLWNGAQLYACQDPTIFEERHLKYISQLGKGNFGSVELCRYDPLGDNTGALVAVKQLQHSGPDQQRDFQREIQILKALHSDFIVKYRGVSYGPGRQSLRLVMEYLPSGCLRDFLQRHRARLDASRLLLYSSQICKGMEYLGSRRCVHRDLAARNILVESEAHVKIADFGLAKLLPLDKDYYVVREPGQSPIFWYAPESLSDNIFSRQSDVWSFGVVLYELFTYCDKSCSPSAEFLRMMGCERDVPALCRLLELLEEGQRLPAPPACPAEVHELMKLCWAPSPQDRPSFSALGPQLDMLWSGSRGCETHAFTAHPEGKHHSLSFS

human JAK1 = human JAK1 (Homo sapiens (Human), UniProt P23458); test: JAK1 TR-FRET kinase assay; type: biochemical; settings: TR-FRET, JAK1 2.5 nM
human JAK1, sequence (P23458 whole entry): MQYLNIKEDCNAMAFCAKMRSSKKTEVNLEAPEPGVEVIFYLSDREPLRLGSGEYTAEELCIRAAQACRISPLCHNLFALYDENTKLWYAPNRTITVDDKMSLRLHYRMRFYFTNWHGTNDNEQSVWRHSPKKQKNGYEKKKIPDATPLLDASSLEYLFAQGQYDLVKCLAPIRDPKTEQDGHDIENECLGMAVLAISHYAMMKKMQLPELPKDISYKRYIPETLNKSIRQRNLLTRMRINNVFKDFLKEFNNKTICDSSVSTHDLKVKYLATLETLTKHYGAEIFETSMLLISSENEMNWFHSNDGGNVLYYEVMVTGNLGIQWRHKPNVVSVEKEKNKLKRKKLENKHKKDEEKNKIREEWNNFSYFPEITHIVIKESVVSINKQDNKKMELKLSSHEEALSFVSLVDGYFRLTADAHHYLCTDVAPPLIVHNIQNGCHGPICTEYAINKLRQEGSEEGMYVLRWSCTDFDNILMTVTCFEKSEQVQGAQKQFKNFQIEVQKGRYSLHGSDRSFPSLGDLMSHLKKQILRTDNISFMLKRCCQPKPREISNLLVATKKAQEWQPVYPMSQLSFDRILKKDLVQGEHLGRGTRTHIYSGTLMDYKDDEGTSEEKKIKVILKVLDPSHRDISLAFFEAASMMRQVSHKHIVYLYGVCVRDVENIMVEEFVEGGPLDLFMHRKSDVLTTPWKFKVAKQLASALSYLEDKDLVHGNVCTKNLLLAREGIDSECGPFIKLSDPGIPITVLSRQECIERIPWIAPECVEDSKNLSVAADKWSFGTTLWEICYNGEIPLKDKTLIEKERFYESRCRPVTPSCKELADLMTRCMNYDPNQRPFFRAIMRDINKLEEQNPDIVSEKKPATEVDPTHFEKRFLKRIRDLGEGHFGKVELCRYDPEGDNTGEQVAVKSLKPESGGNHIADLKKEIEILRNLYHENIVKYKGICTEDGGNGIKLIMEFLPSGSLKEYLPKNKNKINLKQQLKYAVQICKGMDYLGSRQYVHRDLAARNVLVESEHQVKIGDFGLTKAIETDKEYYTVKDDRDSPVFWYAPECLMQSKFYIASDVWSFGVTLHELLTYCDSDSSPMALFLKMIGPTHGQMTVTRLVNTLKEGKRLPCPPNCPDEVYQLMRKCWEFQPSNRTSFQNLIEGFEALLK

human JAK2 = human JAK2 (Homo sapiens (Human), UniProt O60674); test: JAK2 TR-FRET kinase assay; type: biochemical; settings: JAK2 0.025 nM
human JAK2, sequence (O60674 whole entry): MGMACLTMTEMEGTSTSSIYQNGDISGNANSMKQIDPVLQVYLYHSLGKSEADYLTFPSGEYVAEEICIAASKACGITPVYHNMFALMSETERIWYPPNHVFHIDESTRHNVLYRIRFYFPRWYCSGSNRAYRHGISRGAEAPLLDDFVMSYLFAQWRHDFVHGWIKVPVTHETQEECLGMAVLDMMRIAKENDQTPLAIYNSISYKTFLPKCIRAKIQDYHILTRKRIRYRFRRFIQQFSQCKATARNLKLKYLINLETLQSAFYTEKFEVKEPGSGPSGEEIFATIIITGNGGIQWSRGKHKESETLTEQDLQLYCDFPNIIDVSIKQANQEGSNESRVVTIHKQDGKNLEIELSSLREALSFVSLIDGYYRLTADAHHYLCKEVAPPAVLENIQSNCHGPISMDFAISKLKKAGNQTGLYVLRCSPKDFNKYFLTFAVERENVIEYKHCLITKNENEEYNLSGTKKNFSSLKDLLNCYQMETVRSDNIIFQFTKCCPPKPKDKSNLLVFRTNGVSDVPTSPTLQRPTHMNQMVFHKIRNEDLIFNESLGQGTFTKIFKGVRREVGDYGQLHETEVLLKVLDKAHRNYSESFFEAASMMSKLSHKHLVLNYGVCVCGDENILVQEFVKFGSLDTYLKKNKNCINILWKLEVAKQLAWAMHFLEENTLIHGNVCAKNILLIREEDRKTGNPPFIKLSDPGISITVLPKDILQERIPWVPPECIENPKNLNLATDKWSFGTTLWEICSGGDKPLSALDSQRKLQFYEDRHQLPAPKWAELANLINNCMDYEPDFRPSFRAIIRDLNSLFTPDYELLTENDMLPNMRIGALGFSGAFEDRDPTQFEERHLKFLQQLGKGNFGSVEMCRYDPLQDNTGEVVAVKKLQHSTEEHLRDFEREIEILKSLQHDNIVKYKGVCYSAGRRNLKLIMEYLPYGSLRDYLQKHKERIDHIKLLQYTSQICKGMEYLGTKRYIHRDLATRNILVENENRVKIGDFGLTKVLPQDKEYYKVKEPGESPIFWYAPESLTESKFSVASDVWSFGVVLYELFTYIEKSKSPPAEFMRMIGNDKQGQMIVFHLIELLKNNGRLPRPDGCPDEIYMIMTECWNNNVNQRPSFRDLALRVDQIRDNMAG

TYK2 JH2 domain, sequence (P29597 589-875): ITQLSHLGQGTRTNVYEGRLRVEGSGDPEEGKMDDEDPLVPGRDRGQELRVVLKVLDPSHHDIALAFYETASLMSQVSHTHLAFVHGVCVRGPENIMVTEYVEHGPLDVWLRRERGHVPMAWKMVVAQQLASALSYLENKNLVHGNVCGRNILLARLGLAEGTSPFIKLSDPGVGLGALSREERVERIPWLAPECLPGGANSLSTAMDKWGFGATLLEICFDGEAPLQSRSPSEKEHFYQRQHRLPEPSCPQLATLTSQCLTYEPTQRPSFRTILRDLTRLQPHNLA

Row | SMILES | IC50 (TYK2 JH2 domain) | IC50 (human JAK3) | IC50 (human JAK1) | IC50 (human JAK2)
1 | CCC(=O)c1cnc(Nc2cnc(O[C@@H]3CCCN(C)C3)cn2)cc1Nc1cccc(-c2ncn(C)n2)c1OC [Compound 18PPP] | 5 to 50 nM | ≥ 500 nM | ≥ 500 nM | ≥ 500 nM
2 | CCC(=O)c1cnc(Nc2cnc(OCCN3CC(F)C3)cn2)cc1Nc1cccc(-c2ncn(C)n2)c1OC [Compound 18PP] | 5 to 50 nM | ≥ 500 nM | ≥ 500 nM | ≥ 500 nM
3 | CCC(=O)c1cnc(Nc2cnc(OCCO)cn2)cc1Nc1cccc(-c2ncn(C)n2)c1OC [Compound 18P] | 5 to 50 nM | ≥ 500 nM | ≥ 500 nM | ≥ 500 nM
4 | CCC(=O)c1cnc(Nc2cnc(O[C@H]3CCCN(C)C3)cn2)cc1Nc1cccc(-c2ncn(C)n2)c1OC [Compound 18QQQ] | 5 to 50 nM | ≥ 500 nM | ≥ 500 nM | ≥ 500 nM
5 | CCC(=O)c1cnc(Nc2cnc(OCCN3CC(F)(F)C3)cn2)cc1Nc1cccc(-c2ncn(C)n2)c1OC [Compound 18QQ] | 5 to 50 nM | ≥ 500 nM | ≥ 500 nM | ≥ 500 nM
6 | CCC(=O)c1cnc(Nc2cnc(OCCCO)cn2)cc1Nc1cccc(-c2ncn(C)n2)c1OC [Compound 18Q] | 5 to 50 nM | ≥ 500 nM | ≥ 500 nM | ≥ 500 nM
7 | CCC(=O)c1cnc(Nc2cnc(O[C@H]3CN(C)CC3(F)F)cn2)cc1Nc1cccc(-c2ncn(C)n2)c1OC [Compound 18RRR] | 5 to 50 nM | ≥ 500 nM | ≥ 500 nM | ≥ 500 nM
8 | CCC(=O)c1cnc(Nc2cnc(OCCN3CC(C#N)C3)cn2)cc1Nc1cccc(-c2ncn(C)n2)c1OC [Compound 18RR] | 5 to 50 nM | ≥ 500 nM | ≥ 500 nM | ≥ 500 nM
9 | CCC(=O)c1cnc(Nc2cnc(O[C@@H]3CCN(C)C[C@@H]3F)cn2)cc1Nc1cccc(-c2ncn(C)n2)c1OC [Compound 18SSS] | 5 to 50 nM | ≥ 500 nM | ≥ 500 nM | ≥ 500 nM
10 | CCC(=O)c1cnc(Nc2cnc(O[C@@H]3CCNC3)cn2)cc1Nc1cccc(-c2ncn(C)n2)c1OC [Compound 18SS] | 5 to 50 nM | ≥ 500 nM | ≥ 500 nM | ≥ 500 nM
11 | CCC(=O)c1cnc(Nc2ccc(O[C@H]3CN(C)C[C@@H]3O)cn2)cc1Nc1cccc(-c2ncn(C)n2)c1OC [Compound 18S] | 5 to 50 nM | 50 to 500 nM | ≥ 500 nM | ≥ 500 nM
12 | CCC(=O)c1cnc(Nc2cnc(O[C@H]3CCN(C)C[C@@H]3F)cn2)cc1Nc1cccc(-c2ncn(C)n2)c1OC [Compound 18TTT] | 5 to 50 nM | ≥ 500 nM | ≥ 500 nM | ≥ 500 nM
13 | COc1c(Nc2cc(Nc3ccc(OCCN(C)C)cn3)ncc2C(=O)C2CC2)cccc1-c1ncn(C)n1 [Compound 18T] | 5 to 50 nM | ≥ 500 nM | ≥ 500 nM | ≥ 500 nM
14 | CCC(=O)c1cnc(Nc2cnc(O[C@@H]3CCN(C)C3)cn2)cc1Nc1cccc(-c2ncn(C)n2)c1OC [Compound 18UU] | 5 to 50 nM | ≥ 500 nM | ≥ 500 nM | ≥ 500 nM
15 | CCC(=O)c1cnc(Nc2ccc(O[C@@H]3CCN(C)C3)cn2)cc1Nc1cccc(-c2ncc(F)cn2)c1OC [Compound 18VVV] | 5 to 50 nM | 50 to 500 nM | ≥ 500 nM | ≥ 500 nM
16 | CCC(=O)c1cnc(Nc2ncc(O[C@@H]3CCN(C)C3)cc2F)cc1Nc1cccc(-c2ncn(C)n2)c1OC [Compound 18XXX] | 5 to 50 nM | ≥ 500 nM | ≥ 500 nM | ≥ 500 nM
17 | CCC(=O)c1cnc(Nc2cnc(OCCN3CC[C@H](F)C3)cn2)cc1Nc1cccc(-c2ncn(C)n2)c1OC [Compound 18XX] | 5 to 50 nM | ≥ 500 nM | ≥ 500 nM | ≥ 500 nM
18 | CCC(=O)c1cnc(Nc2cnc(OCCN3CC[C@@H](F)C3)cn2)cc1Nc1cccc(-c2ncn(C)n2)c1OC [Compound 18YY] | 5 to 50 nM | ≥ 500 nM | ≥ 500 nM | ≥ 500 nM
19 | CCC(=O)c1cnc(Nc2cnc(OCCN3CCC(F)(F)C3)cn2)cc1Nc1cccc(-c2ncn(C)n2)c1OC [Compound 18ZZ] | 5 to 50 nM | ≥ 500 nM | ≥ 500 nM | ≥ 500 nM
20 | CCC(=O)c1cnc(Nc2cnc(C(F)(F)CNC)cn2)cc1Nc1cccc(-c2ncn(C)n2)c1OC [Compound 19B] | 50 to 500 nM | ≥ 500 nM | ≥ 500 nM | ≥ 500 nM
21 | CCC(=O)c1cnc(Nc2cnc(C(F)(F)CN(C)C)cn2)cc1Nc1cccc(-c2ncn(C)n2)c1OC [Compound 19C] | 5 to 50 nM | ≥ 500 nM | ≥ 500 nM | ≥ 500 nM
22 | CCC(=O)c1cnc(Nc2cnc(C(F)(F)CO)cn2)cc1Nc1cccc(-c2ncn(C)n2)c1OC [Compound 19D] | 5 to 50 nM | ≥ 500 nM | ≥ 500 nM | ≥ 500 nM
23 | CCC(=O)c1cnc(Nc2cnc(C(F)(F)CN3CCCC3)cn2)cc1Nc1cccc(-c2ncn(C)n2)c1OC [Compound 19E] | 5 to 50 nM | ≥ 500 nM | ≥ 500 nM | ≥ 500 nM

More lines, now with the values ahead:

Row | IC50 (TYK2 JH2 domain) | IC50 (human JAK3) | IC50 (human JAK1) | IC50 (human JAK2) | SMILES
24 | < 5 nM | ≥ 500 nM | ≥ 500 nM | ≥ 500 nM | CCC(=O)c1cnc(Nc2ccc(OCCO)nn2)cc1Nc1cccc(-c2ncn(C)n2)c1OC [Compound 18M]
25 | 5 to 50 nM | ≥ 500 nM | ≥ 500 nM | ≥ 500 nM | [2H]C([2H])([2H])N1CC[C@@H](Oc2cnc(Nc3cc(Nc4cccc(-c5ncn(C)n5)c4OC)c(C(=O)CC)cn3)cn2)C1 [Compound 18NNN]
26 | < 5 nM | ≥ 500 nM | ≥ 500 nM | ≥ 500 nM | CCC(=O)c1cnc(Nc2cnc(OCCNC)cn2)cc1Nc1cccc(-c2ncn(C)n2)c1OC [Compound 18NN]
27 | < 5 nM | ≥ 500 nM | ≥ 500 nM | ≥ 500 nM | CCC(=O)c1cnc(Nc2ccc(OCCCO)nn2)cc1Nc1cccc(-c2ncn(C)n2)c1OC [Compound 18N]
28 | < 5 nM | 50 to 500 nM | ≥ 500 nM | ≥ 500 nM | CCC(=O)c1cnc(Nc2ccc(O[C@H]3COC[C@@H]3O)cn2)cc1Nc1cccc(-c2ncn(C)n2)c1OC [Compound 18R]
29 | < 5 nM | ≥ 500 nM | ≥ 500 nM | ≥ 500 nM | CCC(=O)c1cnc(Nc2cnc(O[C@H]3CCN(C)C3)cn2)cc1Nc1cccc(-c2ncn(C)n2)c1OC [Compound 18TT]
30 | < 5 nM | ≥ 500 nM | ≥ 500 nM | ≥ 500 nM | CCC(=O)c1cnc(Nc2ccc(O[C@H]3CN(C)C[C@@H]3F)cn2)cc1Nc1cccc(-c2ncn(C)n2)c1OC [Compound 18UUU]
31 | < 5 nM | ≥ 500 nM | ≥ 500 nM | ≥ 500 nM | CCC(=O)c1cnc(Nc2ccc(OC3CN(C)C3)cn2)cc1Nc1cccc(-c2ncn(C)n2)c1OC [Compound 18U]
32 | < 5 nM | ≥ 500 nM | ≥ 500 nM | ≥ 500 nM | CCC(=O)c1cnc(Nc2cnc(OCCN3CCCC3)cn2)cc1Nc1cccc(-c2ncn(C)n2)c1OC [Compound 18VV]
33 | < 5 nM | 50 to 500 nM | ≥ 500 nM | ≥ 500 nM | CCC(=O)c1cnc(Nc2ccc(O[C@@H]3CCN(C)C3)cn2)cc1Nc1cccc(-c2ncn(C)n2)c1OC [Compound 18V]
34 | < 5 nM | ≥ 500 nM | ≥ 500 nM | ≥ 500 nM | CCC(=O)c1cnc(Nc2ccc(O[C@@H]3CCN(C)C3)cn2)cc1Nc1cc(F)cc(-c2ncn(C)n2)c1OC [Compound 18WWW]
35 | < 5 nM | ≥ 500 nM | ≥ 500 nM | ≥ 500 nM | CCC(=O)c1cnc(Nc2cnc(OCCCN3CCCC3)cn2)cc1Nc1cccc(-c2ncn(C)n2)c1OC [Compound 18WW]
36 | < 5 nM | ≥ 500 nM | ≥ 500 nM | ≥ 500 nM | CCC(=O)c1cnc(Nc2ccc(O[C@H]3CCN(C)C3)cn2)cc1Nc1cccc(-c2ncn(C)n2)c1OC [Compound 18W]
37 | < 5 nM | 50 to 500 nM | ≥ 500 nM | ≥ 500 nM | [2H]C([2H])([2H])N1CC[C@@H](Oc2ccc(Nc3cc(Nc4cccc(-c5ncn(C)n5)c4OC)c(C(=O)CC)cn3)nc2)C1 [Compound 18X]
38 | < 5 nM | 50 to 500 nM | ≥ 500 nM | ≥ 500 nM | CCC(=O)c1cnc(Nc2ccc(O[C@@H]3CCN(C)C3)c(C)n2)cc1Nc1cccc(-c2ncn(C)n2)c1OC [Compound 18YYY]
39 | < 5 nM | 50 to 500 nM | ≥ 500 nM | 50 to 500 nM | CCC(=O)c1cnc(Nc2ccc(OC3CCN(C)CC3)cn2)cc1Nc1cccc(-c2ncn(C)n2)c1OC [Compound 18Y]
40 | < 5 nM | 50 to 500 nM | ≥ 500 nM | 50 to 500 nM | CCC(=O)c1cnc(Nc2ccc(OC3COC3)c(C)n2)cc1Nc1cccc(-c2ncn(C)n2)c1OC [Compound 18ZZZ]
41 | < 5 nM | ≥ 500 nM | ≥ 500 nM | ≥ 500 nM | CCC(=O)c1cnc(Nc2ccc(OC3COC3)cn2)cc1Nc1cccc(-c2ncn(C)n2)c1OC [Compound 18Z]
42 | < 5 nM | ≥ 500 nM | ≥ 500 nM | ≥ 500 nM | CCC(=O)c1cnc(Nc2ccn(-c3ccccc3)c(=O)n2)cc1Nc1cccc(-c2ncn(C)n2)c1OC [Compound 20A, 4-((4-((2-methoxy-3-(1-methyl-1H-1,2,4-triazol-3-yl)phenyl)amino)-5-propionylpyridin-2-yl)amino)-1-phenylpyrimidin-2(1H)-one]
